Reference: PubChem BioAssay (NCI)
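Cells were grown in 96-well plates and exposed to each compound for 48 hours at five concentrations; endpoints were interpolated linearly between bracketing concentrations, or set to the highest concentration if not reached. The concentration for 50% growth inhibition is given as GI50. TGI denotes the concentration required for complete inhibition of growth.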

What was measured:
Test in all cases: NCI-60 cell line screen, 48 h; in the data active = GI50 below about 0.43 µM; inactive = the rest
NCI-H23 lung = system: NCI-H23 lung
NCI-H460 lung = system: NCI-H460 lung
A498 renal = system: A498 renal
PC-3 prostate = system: PC-3 prostate
UACC-62 melanoma = system: UACC-62 melanoma
OVCAR-8 ovarian = system: OVCAR-8 ovarian
HOP-92 NSCLC = system: HOP-92 NSCLC
ACHN renal = system: ACHN renal
SR leukemia = system: SR leukemia
HT29 colon = system: HT29 colon
T-47D breast = system: T-47D breast
OVCAR-5 ovarian = system: OVCAR-5 ovarian
CCRF-CEM leukemia = system: CCRF-CEM leukemia
SW-620 colon = system: SW-620 colon
UACC-257 melanoma = system: UACC-257 melanoma
COLO 205 colon = system: COLO 205 colon
M14 melanoma = system: M14 melanoma
HOP-62 NSCLC = system: HOP-62 NSCLC
HCT-116 colon = system: HCT-116 colon
U251 CNS = system: U251 CNS
MCF7 breast = system: MCF7 breast
NCI-H226 lung = system: NCI-H226 lung
MALME-3M melanoma = system: MALME-3M melanoma
LOX IMVI melanoma = system: LOX IMVI melanoma
MDA-MB-231 breast = system: MDA-MB-231 breast
KM12 colon = system: KM12 colon
BT-549 breast = system: BT-549 breast
SK-MEL-2 melanoma = system: SK-MEL-2 melanoma
SF-539 CNS = system: SF-539 CNS
SF-268 CNS = system: SF-268 CNS
HCT-15 colon = system: HCT-15 colon
SK-MEL-28 melanoma = system: SK-MEL-28 melanoma
UO-31 renal = system: UO-31 renal
SK-MEL-5 melanoma = system: SK-MEL-5 melanoma
K-562 leukemia = system: K-562 leukemia
IGROV1 ovarian = system: IGROV1 ovarian
HL-60(TB) leukemia = system: HL-60(TB) leukemia
SK-OV-3 ovarian = system: SK-OV-3 ovarian
RXF 393 renal = system: RXF 393 renal
OVCAR-3 ovarian = system: OVCAR-3 ovarian
SNB-75 CNS = system: SNB-75 CNS
SNB-19 CNS = system: SNB-19 CNS
TK-10 renal = system: TK-10 renal
786-0 renal = system: 786-0 renal
OVCAR-4 ovarian = system: OVCAR-4 ovarian
A549 NSCLC = system: A549 NSCLC
NCI/ADR-RES ovarian = system: NCI/ADR-RES ovarian
DU-145 prostate = system: DU-145 prostate
MOLT-4 leukemia = system: MOLT-4 leukemia
SN12C renal = system: SN12C renal

Cc1ccc(/C=C2\CCOC2=O)cc1
97.3 µM: TGI (A498 renal)
inactive: GI50 (NCI-H23 lung) > 100 µM | GI50 (NCI-H460 lung) > 100 µM | GI50 (A498 renal) 11.8 µM | GI50 (PC-3 prostate) > 100 µM | GI50 (UACC-62 melanoma) > 100 µM | GI50 (OVCAR-8 ovarian) > 100 µM | GI50 (HOP-92 NSCLC) > 100 µM | GI50 (ACHN renal) > 100 µM | GI50 (SR leukemia) > 100 µM | GI50 (HT29 colon) > 100 µM | GI50 (T-47D breast) > 100 µM | GI50 (OVCAR-5 ovarian) > 100 µM | GI50 (CCRF-CEM leukemia) > 100 µM | GI50 (SW-620 colon) > 100 µM | GI50 (UACC-257 melanoma) > 100 µM | GI50 (COLO 205 colon) > 100 µM | GI50 (M14 melanoma) > 100 µM | GI50 (HOP-62 NSCLC) > 100 µM | GI50 (HCT-116 colon) > 100 µM | GI50 (U251 CNS) > 100 µM | GI50 (MCF7 breast) > 100 µM | GI50 (NCI-H226 lung) > 100 µM | GI50 (MALME-3M melanoma) > 100 µM | GI50 (LOX IMVI melanoma) > 100 µM | GI50 (MDA-MB-231 breast) > 100 µM | GI50 (KM12 colon) > 100 µM | GI50 (BT-549 breast) > 100 µM | GI50 (SK-MEL-2 melanoma) > 100 µM | GI50 (SF-539 CNS) > 100 µM | GI50 (SF-268 CNS) 60.2 µM | GI50 (HCT-15 colon) > 100 µM | GI50 (SK-MEL-28 melanoma) > 100 µM | GI50 (UO-31 renal) 41.8 µM | GI50 (SK-MEL-5 melanoma) > 100 µM | GI50 (K-562 leukemia) > 100 µM | GI50 (IGROV1 ovarian) 82.5 µM | GI50 (HL-60(TB) leukemia) > 100 µM | GI50 (SK-OV-3 ovarian) > 100 µM | GI50 (RXF 393 renal) > 100 µM | GI50 (OVCAR-3 ovarian) > 100 µM | GI50 (SNB-75 CNS) > 100 µM | GI50 (SNB-19 CNS) > 100 µM | GI50 (TK-10 renal) > 100 µM | GI50 (786-0 renal) > 100 µM | GI50 (OVCAR-4 ovarian) > 100 µM | GI50 (A549 NSCLC) > 100 µM | GI50 (NCI/ADR-RES ovarian) > 100 µM | GI50 (DU-145 prostate) > 100 µM | GI50 (MOLT-4 leukemia) > 100 µM | GI50 (SN12C renal) > 100 µM
> 100 µM: TGI (NCI-H23 lung) | TGI (NCI-H460 lung) | TGI (PC-3 prostate) | TGI (UACC-62 melanoma) | TGI (OVCAR-8 ovarian) | TGI (HOP-92 NSCLC) | TGI (ACHN renal) | TGI (SR leukemia) | TGI (HT29 colon) | TGI (T-47D breast) | TGI (OVCAR-5 ovarian) | TGI (CCRF-CEM leukemia) | TGI (SW-620 colon) | TGI (UACC-257 melanoma) | TGI (COLO 205 colon) | TGI (M14 melanoma) | TGI (HOP-62 NSCLC) | TGI (HCT-116 colon) | TGI (U251 CNS) | TGI (MCF7 breast) | TGI (NCI-H226 lung) | TGI (MALME-3M melanoma) | TGI (LOX IMVI melanoma) | TGI (MDA-MB-231 breast) | TGI (KM12 colon) | TGI (BT-549 breast) | TGI (SK-MEL-2 melanoma) | TGI (SF-539 CNS) | TGI (SF-268 CNS) | TGI (HCT-15 colon) | TGI (SK-MEL-28 melanoma) | TGI (UO-31 renal) | TGI (SK-MEL-5 melanoma) | TGI (K-562 leukemia) | TGI (IGROV1 ovarian) | TGI (HL-60(TB) leukemia) | TGI (SK-OV-3 ovarian) | TGI (RXF 393 renal) | TGI (OVCAR-3 ovarian) | TGI (SNB-75 CNS) | TGI (SNB-19 CNS) | TGI (TK-10 renal) | TGI (786-0 renal) | TGI (OVCAR-4 ovarian) | TGI (A549 NSCLC) | TGI (NCI/ADR-RES ovarian) | TGI (DU-145 prostate) | TGI (MOLT-4 leukemia) | TGI (SN12C renal)
